These compounds were tested against B-Raf (Homo sapiens, UniProt P15056) (assay: Luciferase-coupled chemiluminescence kinase assay (ATP consumption), B-Raf). Details: read-out: bRaf (inhibition indicated as IC50).
Format: biochemical
Procedure: (§1) Tyrosine kinase activity is determined by 1) measurement of kinase-dependent ATP consumption by in the presence of a generic substrate such as […], tyrosine (pEY), by luciferase/luciferin-mediated chemiluminescence or; 2) incorporation of radioactive phosphate derived from ^33P-ATP into a generic substrate which has been adsorbed onto the well surface of polystyrene microtiter plates. Phosphorylated substrate products are quantified by scintillation spectrometry.
(§2) Luciferase-Coupled Chemiluminescence Assay Protocol
(§3) Kinase activity is measured as the percent of ATP consumed following the kinase reaction using luciferase-luciferin-coupled chemiluminescence. Reactions were conducted in 384-well white, medium binding microtiter plates (Greiner). Kinase reactions were initiated by combining test compounds, ATP and kinase in a 20 uL volume. The reaction mixture was incubated at ambient temperature for 3 hrs. For c-Raf, B-Raf, and B-RafV599E, […] of the enzyme was pre-incubated with compound in 20 mM Tris pH 7.5, 10 mM MgCl2, 0.03% TX-100, and 1 mM DTT for 30 minutes at room temperature. Following the kinase reaction, a 20 μL aliquot of luciferase-luciferin mix was added and the chemiluminescence signal measured using a Victor^2 plate reader (Perkin Elmer). The luciferase-luciferin mix contained 50 mM HEPES, pH 7.8, 67 mM oxalic acid (pH 7.8), 5 (or 50) mM DTT, 0.4% Triton X-100, 0.25 mg/mL coenzyme A, 63 μM AMP, 28 μg/mL luciferin and 40,000 units/mL luciferase. Total ATP consumption was limited to 25-60% and the IC50 values correlate well with those determined by radiometric assays.

Sequence of B-Raf (P15056 whole entry): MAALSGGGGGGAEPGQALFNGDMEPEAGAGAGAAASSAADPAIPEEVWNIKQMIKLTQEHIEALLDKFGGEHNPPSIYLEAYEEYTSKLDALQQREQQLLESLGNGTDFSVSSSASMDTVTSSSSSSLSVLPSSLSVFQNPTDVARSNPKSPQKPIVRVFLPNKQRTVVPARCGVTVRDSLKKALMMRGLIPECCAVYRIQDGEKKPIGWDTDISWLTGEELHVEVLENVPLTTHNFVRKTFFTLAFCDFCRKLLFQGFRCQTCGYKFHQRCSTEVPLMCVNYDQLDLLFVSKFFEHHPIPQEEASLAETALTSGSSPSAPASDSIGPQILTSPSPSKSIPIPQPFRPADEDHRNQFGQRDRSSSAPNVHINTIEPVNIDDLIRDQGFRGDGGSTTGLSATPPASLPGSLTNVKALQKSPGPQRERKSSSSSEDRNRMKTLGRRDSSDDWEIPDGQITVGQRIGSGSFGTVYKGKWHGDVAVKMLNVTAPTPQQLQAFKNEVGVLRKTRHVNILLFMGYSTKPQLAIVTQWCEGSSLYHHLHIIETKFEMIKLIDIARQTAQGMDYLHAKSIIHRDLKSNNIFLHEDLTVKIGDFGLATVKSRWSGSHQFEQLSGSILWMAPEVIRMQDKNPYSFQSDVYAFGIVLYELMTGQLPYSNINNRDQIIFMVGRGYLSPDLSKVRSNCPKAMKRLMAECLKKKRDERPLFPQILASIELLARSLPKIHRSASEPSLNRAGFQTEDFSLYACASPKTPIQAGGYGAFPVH

Compound | IC50
COC(=O)Nc1nc2ccc(C(=O)c3ccccc3C(=O)Nc3cccc(C)c3)cc2[nH]1 [Entry 393, methyl {6-[(2-{[(3-methylphenyl)amino]carbonyl}phenyl)carbonyl]-1H-benzimidazol-2-yl}carbamate] | < 0.1 µM
COC(=O)Nc1nc2ccc(C(=O)c3ccccc3C(=O)Nc3cccc(F)c3)cc2[nH]1 [Entry 396, methyl {6-[(2-{[(3-fluorophenyl)amino]carbonyl}phenyl)carbonyl]-1H-benzimidazol-2-yl}carbamate] | < 0.1 µM
CCc1cccc(NC(=O)c2ccccc2C(=O)c2ccc3nc(NC(=O)OC)[nH]c3c2)c1 [Entry 399, methyl {6-[(2-{[(3-ethylphenyl)amino]carbonyl}phenyl)carbonyl]-1H-benzimidazol-2-yl}carbamate] | < 0.1 µM
C#Cc1cccc(NC(=O)c2ccccc2C(=O)c2ccc3nc(NC(=O)OC)[nH]c3c2)c1 [Entry 400, methyl {6-[(2-{[(3-ethynylphenyl)amino]carbonyl}phenyl)carbonyl]-1H-benzimidazol-2-yl}carbamate] | < 0.1 µM

Continued, values first:

IC50 | Compound
< 0.1 µM | COC(=O)Nc1nc2ccc(C(=O)c3ccccc3C(=O)Nc3cccc(I)c3)cc2[nH]1 [Entry 403, methyl {6-[(2-{[(3-iodophenyl)amino]carbonyl}phenyl)carbonyl]-1H-benzimidazol-2-yl}carbamate]
< 0.1 µM | COC(=O)Nc1nc2ccc(C(=O)c3ccccc3C(=O)Nc3cccc(C(C)C)c3)cc2[nH]1 [Entry 404, methyl (6-{[2-({[3-(1-methylethyl)phenyl]amino}carbonyl)phenyl]carbonyl}-1H-benzimidazol-2-yl)carbamate]
< 0.1 µM | COC(=O)Nc1nc2ccc(C(=O)c3ccccc3C(=O)NCc3ccsc3)cc2[nH]1 [Entry 405, methyl {6-[(2-{[(3-thienylmethyl)amino]carbonyl}phenyl)carbonyl]-1H-benzimidazol-2-yl}carbamate]
< 0.1 µM | COC(=O)Nc1nc2ccc(C(=O)c3ccccc3C(=O)Nc3cc(Br)ccc3F)cc2[nH]1 [Entry 409, methyl {6-[(2-{[(5-bromo-2-fluorophenyl)amino]carbonyl}phenyl)carbonyl]-1H-benzimidazol-2-yl}carbamate]
< 0.1 µM | COC(=O)Nc1nc2ccc(C(=O)c3ccccc3C(=O)Nc3cccc(Br)c3F)cc2[nH]1 [Entry 412, methyl {6-[(2-{[(3-bromo-2-fluorophenyl)amino]carbonyl}phenyl)carbonyl]-1H-benzimidazol-2-yl}carbamate]
< 0.1 µM | COC(=O)Nc1nc2ccc(C(=O)c3ccccc3C(=O)Nc3cc(Cl)ccc3C)cc2[nH]1 [Entry 415, methyl {6-[(2-{[(5-chloro-2-methylphenyl)amino]carbonyl}phenyl)carbonyl]-1H-benzimidazol-2-yl}carbamate]
< 0.1 µM | COC(=O)Nc1nc2ccc(C(=O)c3ccccc3C(=O)Nc3cc(Br)ccc3C)cc2[nH]1 [Entry 416, methyl {6-[(2-{[(5-bromo-2-methylphenyl)amino]carbonyl}phenyl)carbonyl]-1H-benzimidazol-2-yl}carbamate]
< 0.1 µM | COC(=O)Nc1nc2ccc(C(=O)c3ccccc3C(=O)Nc3cccc(I)c3F)cc2[nH]1 [Entry 417, methyl {6-[(2-{[(2-fluoro-3-iodophenyl)amino]carbonyl}phenyl)carbonyl]-1H-benzimidazol-2-yl}carbamate]

Same assay, conditions: read-out: bRaf IC50

IC50 | Compound
≥ 10 µM | O=C1COc2ccc(C3(O)c4ccccc4C(=O)N3Cc3ccccc3Cl)cc2N1 (stereo not shown) [Entry 35, 6-{2-[(2-chlorophenyl)methyl]-1-hydroxy-3-oxo-2,3-dihydro-1H-isoindol-1-yl}-2H-1,4-benzoxazin-3(4H)-one]
1 to 10 µM | O=C1COc2ccc(C3(O)c4ccccc4C(=O)N3Cc3cccc(F)c3)cc2N1 (stereo not shown) [Entry 36, 6-{2-[(3-fluorophenyl)methyl]-1-hydroxy-3-oxo-2,3-dihydro-1H-isoindol-1-yl}-2H-1,4-benzoxazin-3(4H)-one]

These compounds were tested against c-Raf (Homo sapiens, UniProt P04049) (assay: Luciferase-coupled chemiluminescence kinase assay (ATP consumption), c-Raf). Details: read-out: cRaf-1 IC50.
Sequence of c-Raf (P04049 whole entry): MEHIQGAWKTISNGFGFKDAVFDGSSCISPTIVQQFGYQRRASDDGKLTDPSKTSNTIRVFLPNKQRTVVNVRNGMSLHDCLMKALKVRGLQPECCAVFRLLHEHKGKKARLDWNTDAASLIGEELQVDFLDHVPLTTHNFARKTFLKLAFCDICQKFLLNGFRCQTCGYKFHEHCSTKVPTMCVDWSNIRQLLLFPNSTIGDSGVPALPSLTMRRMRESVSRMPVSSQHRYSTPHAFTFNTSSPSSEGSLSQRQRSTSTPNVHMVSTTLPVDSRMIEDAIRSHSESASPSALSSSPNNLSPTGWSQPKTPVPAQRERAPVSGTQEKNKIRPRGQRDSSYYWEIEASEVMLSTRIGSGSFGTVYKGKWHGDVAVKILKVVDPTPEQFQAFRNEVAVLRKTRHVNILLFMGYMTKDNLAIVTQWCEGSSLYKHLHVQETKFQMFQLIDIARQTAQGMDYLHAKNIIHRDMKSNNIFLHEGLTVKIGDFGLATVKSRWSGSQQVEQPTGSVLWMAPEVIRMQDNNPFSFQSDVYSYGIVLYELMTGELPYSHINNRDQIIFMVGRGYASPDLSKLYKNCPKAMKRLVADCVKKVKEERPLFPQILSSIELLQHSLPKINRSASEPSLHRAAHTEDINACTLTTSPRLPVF
Format: biochemical
Procedure: as §1, §2, §3

IC50 | Compound
1 to 10 µM | O=C1COc2ccc(C3(O)c4ccccc4C(=O)N3Cc3ccccc3Cl)cc2N1 (stereo not shown) [Entry 35, 6-{2-[(2-chlorophenyl)methyl]-1-hydroxy-3-oxo-2,3-dihydro-1H-isoindol-1-yl}-2H-1,4-benzoxazin-3(4H)-one]
1 to 10 µM | O=C1COc2ccc(C3(O)c4ccccc4C(=O)N3Cc3cccc(F)c3)cc2N1 (stereo not shown) [Entry 36, 6-{2-[(3-fluorophenyl)methyl]-1-hydroxy-3-oxo-2,3-dihydro-1H-isoindol-1-yl}-2H-1,4-benzoxazin-3(4H)-one]

From US7846959B2, “Raf modulators and methods of use” (Exelixis, Inc., priority 2004, dated 2010)
